We go through 17 molecules from patent US10626081B2, “Farnesoid X receptor agonists and uses thereof” (Metacrine, Inc., priority 2015, dated 2020).

SMILES strings stand for the structures. pEC50: −log10 of the molar value.

Test [1] addresses T1, FXR (Homo sapiens, UniProt Q96RI1).
T1 construct: expressed in transfected cells; host or cells: CV-1 cells
T1 sequence (Q96RI1 1-486): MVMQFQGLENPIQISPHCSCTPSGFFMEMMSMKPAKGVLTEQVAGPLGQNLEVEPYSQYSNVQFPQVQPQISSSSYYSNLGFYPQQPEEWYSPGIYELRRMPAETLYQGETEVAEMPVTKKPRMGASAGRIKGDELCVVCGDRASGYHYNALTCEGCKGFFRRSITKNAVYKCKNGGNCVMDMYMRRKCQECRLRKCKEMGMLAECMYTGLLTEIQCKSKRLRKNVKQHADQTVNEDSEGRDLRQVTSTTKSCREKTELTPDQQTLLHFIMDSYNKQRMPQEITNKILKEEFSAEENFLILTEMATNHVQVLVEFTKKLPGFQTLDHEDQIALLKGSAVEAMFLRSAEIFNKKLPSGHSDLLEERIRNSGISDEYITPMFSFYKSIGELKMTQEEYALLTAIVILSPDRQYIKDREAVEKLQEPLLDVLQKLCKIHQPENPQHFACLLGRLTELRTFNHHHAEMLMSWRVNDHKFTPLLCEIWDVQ
T1 sequence (P19793 1-462 partner): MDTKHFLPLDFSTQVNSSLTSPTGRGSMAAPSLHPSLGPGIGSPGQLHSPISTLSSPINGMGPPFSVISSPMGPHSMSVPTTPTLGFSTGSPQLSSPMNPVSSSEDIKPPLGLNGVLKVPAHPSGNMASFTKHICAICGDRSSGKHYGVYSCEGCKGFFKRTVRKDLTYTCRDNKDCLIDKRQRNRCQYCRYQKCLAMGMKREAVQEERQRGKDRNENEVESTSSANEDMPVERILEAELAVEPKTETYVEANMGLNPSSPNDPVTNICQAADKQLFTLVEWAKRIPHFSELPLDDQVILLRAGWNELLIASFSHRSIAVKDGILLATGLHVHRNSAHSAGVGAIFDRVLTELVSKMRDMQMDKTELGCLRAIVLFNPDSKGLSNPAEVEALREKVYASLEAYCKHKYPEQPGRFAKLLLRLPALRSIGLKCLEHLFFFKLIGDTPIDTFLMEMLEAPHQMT
Nature of the test: In Vitro FXR Assay (TK): TK-ECRE-luc reporter in transfected CV-1 cells. The class given is cell-based. As to conditions: CV-1 cells transfected with hFXR, hRXR, 18 h incubation, luminescence. The essentials: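 CV-1 cells in charcoal-stripped FBS medium were transiently cotransfected with hFXR, hRXR, TK-ECRE-luc and pCMX-YFP plasmids. After 18 h, compounds serially diluted in DMSO were added for 18 h at 37 °C, 5% CO2, then cells were lysed and luminescence read.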

In test [2] the target is T1, FXR. Nature of the test: In Vitro FXR Assay (PGL3): luciferase reporter in transfected CV-1 cells. The class given is cell-based. As to conditions: CV-1 cells transfected with hFXR, hRXR, PGL3-ECRE*6-luc; 18 h incubation; luminescence. In short, it runs like this: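 CV-1 cells in charcoal-stripped FBS were transiently co-transfected with full-length human FXR, RXR, an ECRE×6-luciferase reporter, β-gal and YFP plasmids. Transfected cells were reseeded onto half-log compound dilutions and incubated 18 h. Luciferase luminescence was read after lysis, and EC50 was determined.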
(In a reporter assay the amount or activity of a reporter protein is the signal.)

For `COC(=O)/C=C/c1cccc(N(Cc2ccc(-c3ccc(OC)cc3F)cc2)C(=O)C2CCCCC2)c1` [compound 33, (E)-Methyl 3-(3-(N-((2′-fluoro-4′-methoxy-[1,1′-biphenyl]-4-yl)methyl)cyclohexanecarboxamido)phenyl)acrylate], the negative-log EC50 (pEC50) on FXR [1] was 5.00 to 6.00. For the same molecule, at FXR [2], the “Cmpd/Fex (ratio of the EC50 for the test compound relative to the EC50 of the Fexaramine control)” value was “++ (‘++’ means Cmpd/Fex > 10 & < 100)”.
In the same order, the values of `COC(=O)/C=C/c1cccc(N(Cc2ccc(-c3ccc(Cl)cc3)cc2)C(=O)C2CCCCC2)c1` [compound 34, (E)-Methyl 3-(3-(N-((4′-chloro-[1,1′-biphenyl]-4-yl)methyl)cyclohexanecarboxamido)phenyl)acrylate] are 5.00 to 6.00 and “+++ (‘+++’ means Cmpd/Fex < 10)”.
The matching figures for `COC(=O)/C=C/c1cccc(N(Cc2ccc(-c3cccc(C(F)(F)F)c3)cc2)C(=O)C2CCCCC2)c1` [compound 35, (E)-Methyl 3-(3-(N-((3′-(trifluoromethyl)-[1,1′-biphenyl]-4-yl)methyl)cyclohexanecarboxamido)phenyl)acrylate]: 5.00 to 6.00 and “++ (‘++’ means Cmpd/Fex > 10 & < 100)”.
Consider `COC(=O)/C=C/c1cccc(N(Cc2ccc(-c3ccc(C(F)(F)F)cc3)cc2)C(=O)C2CCCCC2)c1` [compound 36, (E)-Methyl 3-(3-(N-((4′-(trifluoromethyl)-[1,1′-biphenyl]-4-yl)methyl)cyclohexanecarboxamido)phenyl)acrylate], for which the pEC50 at FXR [1] was 5.00 to 6.00. The “Cmpd/Fex (ratio of the EC50 for the test compound relative to the EC50 of the Fexaramine control)” value at FXR [2] is given as “++ (‘++’ means Cmpd/Fex > 10 & < 100)”.
On FXR [1], `COC(=O)/C=C/c1cccc(N(Cc2ccc(-c3cccc(N(C)C)c3)cc2)C(=O)C2CCCCC2)c1` [compound 37, (E)-Methyl 3-(3-(N-((3′-(dimethylamino)-[1,1′-biphenyl]-4-yl)methyl)cyclohexanecarboxamido)phenyl) acrylate] had a pEC50 of 5.00 to 6.00. Also, the “Cmpd/Fex (ratio of the EC50 for the test compound relative to the EC50 of the Fexaramine control)” value on FXR [2] is “++ (‘++’ means Cmpd/Fex > 10 & < 100)”.
The matching figures for `COC(=O)/C=C/c1cccc(N(Cc2ccc(-c3ccc(N(C)C)nc3)cc2)C(=O)C2CCCCC2)c1` [compound 38, (E)-Methyl 3-(3-(N-(4-(6-(dimethylamino)pyridin-3-yl)benzyl)cyclohexanecarboxamido)phenyl) acrylate]: no less than 6.00 and “+++ (‘+++’ means Cmpd/Fex < 10)”.
At FXR [1], `COC(=O)/C=C/c1cc(C)cc(N(Cc2ccc(-c3ccc(N(C)C)cc3)cc2)C(=O)C2CCCCC2)c1` [compound 39, (E)-Methyl 3-(3-(N-((4′-(dimethylamino)-[1,1′-biphenyl]-4-yl)methyl)cyclohexanecarboxamido)-5-methylphenyl)acrylate] had a pEC50 of 5.00 to 6.00. Further, the “Cmpd/Fex (ratio of the EC50 for the test compound relative to the EC50 of the Fexaramine control)” value on FXR [2] was “+++ (‘+++’ means Cmpd/Fex < 10)”.
The matching figures for `COC(=O)/C=C/c1cc(N(Cc2ccc(-c3ccc(N(C)C)cc3)cc2)C(=O)C2CCCCC2)ccc1C` [compound 40, (E)-Methyl 3-(5-(N-((4′-(dimethylamino)-[1,1′-biphenyl]-4-yl)methyl)cyclohexanecarboxamido)-2-methylphenyl)acrylate]: less than 5.00 and “+ (‘+’ means Cmpd/Fex > 100)”.
The matching figures for `COC(=O)/C=C/c1cccc(N(Cc2ccc(-c3ccc(N(C)C)cc3)cc2)C(=O)C2CCCCC2)c1C` [compound 41, (E)-Methyl 3-(3-(N-((4′-(dimethylamino)-[1,1′-biphenyl]-4-yl)methyl)cyclohexanecarboxamido)-2-methylphenyl)acrylate]: 5.00 to 6.00 and “++ (‘++’ means Cmpd/Fex > 10 & < 100)”.
The matching figures for `COC(=O)/C=C/c1ccc(C)c(N(Cc2ccc(-c3ccc(N(C)C)cc3)cc2)C(=O)C2CCCCC2)c1` [compound 42, (E)-Methyl 3-(3-(N-((4′-(dimethylamino)-[1,1′-biphenyl]-4-yl)methyl)cyclohexanecarboxamido)-4-methylphenyl)acrylate]: 5.00 to 6.00 and “+++ (‘+++’ means Cmpd/Fex < 10)”.
As for `COC(=O)CCc1cccc(N(Cc2ccc(-c3ccc(N(C)C)cc3)cc2)C(=O)C2CCCCC2)c1` [compound 43, Methyl 3-(3-(N-((4′-(dimethylamino)-[1,1′-biphenyl]-4-yl)methyl)cyclohexanecarboxamido)phenyl) propanoate], the pEC50 at FXR [1] was 5.00 to 6.00. Further, the “Cmpd/Fex (ratio of the EC50 for the test compound relative to the EC50 of the Fexaramine control)” value on FXR [2] is listed as “++ (‘++’ means Cmpd/Fex > 10 & < 100)”.
Turning to `COC/C=C/c1cccc(N(Cc2ccc(-c3ccc(N(C)C)cc3)cc2)C(=O)C2CCCCC2)c1` [compound 44, (E)-N-((4′-(Dimethylamino)-[1,1′-biphenyl]-4-yl)methyl)-N-(3-(3-methoxyprop-1-en-1-yl)phenyl)cyclohexanecarboxamide], on FXR [1], the negative-log EC50 (pEC50) is 5.00 to 6.00. Further, the “Cmpd/Fex (ratio of the EC50 for the test compound relative to the EC50 of the Fexaramine control)” value on FXR [2] is reported as “+++ (‘+++’ means Cmpd/Fex < 10)”.
Turning to `COC(=O)/C=C(\C)c1cccc(N(Cc2ccc(-c3ccc(N(C)C)cc3)cc2)C(=O)C2CCCCC2)c1` [compound 45, (E)-Methyl 3-(3-(N-((4′-(dimethylamino)-[1,1′-biphenyl]-4-yl)methyl)cyclohexanecarboxamido)phenyl)but-2-enoate], on FXR [1], the negative logarithm of the EC50 (pEC50) is 5.00 to 6.00. The “Cmpd/Fex (ratio of the EC50 for the test compound relative to the EC50 of the Fexaramine control)” value at FXR [2] is recorded as “+++ (‘+++’ means Cmpd/Fex < 10)”.
In the same order, the values of `COC(=O)/C=C/c1cccc(N(C(=O)C2CCCCC2)C(C)c2ccc(-c3ccc(N(C)C)cc3)cc2)c1` (stereo not shown) [compound 46, (E)-Methyl 3-(3-(N-(1-(4′-(dimethylamino)-[1,1′-biphenyl]-4-yl)ethyl)cyclohexanecarboxamido)phenyl) acrylate] are 5.00 to 6.00 and “++ (‘++’ means Cmpd/Fex > 10 & < 100)”.
In the same order, the values of `COC(=O)/C=C/c1cccc(N(Cc2ccc(-c3cccc(C(C)C)c3)cc2)C(=O)C2CCCCC2)c1` [compound 47, (E)-Methyl 3-(3-(N-((3′-isopropyl-[1,1′-biphenyl]-4-yl)methyl)cyclohexanecarboxamido)phenyl) acrylate] are less than 5.00 and “+ (‘+’ means Cmpd/Fex > 100)”.
In the same order, the values of `COC(=O)/C=C/c1cccc(N(Cc2ccc(-c3ccc(N4CCCC4)cc3)cc2)C(=O)C2CCCCC2)c1` [compound 48, (E)-Methyl 3-(3-(N-((4′-(pyrrolidin-1-yl)-[1,1′-biphenyl]-4-yl)methyl)cyclohexanecarboxamido)phenyl) acrylate] are 5.00 to 6.00 and “+++ (‘+++’ means Cmpd/Fex < 10)”.
The molecule `COC(=O)/C=C/c1cccc(N(Cc2ccc(-c3ccc4[nH]ncc4c3)cc2)C(=O)C2CCCCC2)c1` [compound 49, (E)-Methyl 3-(3-(N-(4-(1H-indazol-5-yl)benzyl)cyclohexanecarboxamido)phenyl) acrylate] showed a pEC50 at FXR [1] of 5.00 to 6.00. Besides, the “Cmpd/Fex (ratio of the EC50 for the test compound relative to the EC50 of the Fexaramine control)” value at FXR [2] is listed as “+ (‘+’ means Cmpd/Fex > 100)”.

By pEC50 is commonly meant −log10 of the EC50, conventionally taken in molar units. A lower pEC50 goes with a high EC50.
